Measurements from patent EP1222163B1, “2'-SUBSTITUTED 1,1'-BIPHENYL-2-CARBONAMIDES, METHOD FOR THE PRODUCTION THEREOF, USE THEREOF AS A MEDICAMENT AND PHARMACEUTICAL PREPARATIONS CONTAINING SAID COMPOUNDS” (Sanofi-Aventis Deutschland GmbH, priority 1999, dated 2001).

Target: T1, Kv1.5-Kanäle aus dem Menschen (Homo sapiens, UniProt P22460)
T1 construct: expressed in transfected cells; host or cells: Xenopus laevis oocytes injected with in vitro synthesised Kv1.5-coding RNA
Test: Kv1.5 currents in Xenopus oocytes, two-microelectrode voltage clamp
Format: cell-based
Excerpt: Kv1.5-Kanäle aus dem Menschen wurden in Xenopus Oozyten expremiert. Hierfür wurden zuerst Oozyten aus Xenopus laevis isoliert und defollikuliert. Anschließend wurde in diese Oozyten in vitro synthetisierte Kv1.5 kodierende RNA injiziert. Nach 1 - 7 Tagen Kv1.5-Proteinexpression wurden an den Oozyten mit der Zwei-Mikroelektroden Voltage-Clamp Technik Kv1.5-Ströme gemessen. Die Kv1.5-Kanäle wurden hierbei in der Regel mit 500 ms dauernden Spannungssprüngen auf 0 mV und 40 mV aktiviert. Das Bad wurde mit einer Lösung der nachfolgenden Zusammensetzung durchspült: NaCl 96 mM, KCl 2 mM, CaCl2 1,8 mM, MgCl2 1 mM, HEPES 5 mM (titriert mit NaOH auf pH 7,4). Diese Experimente wurden bei Raumtemperatur durchgeführt. Zur Datenerhebung und Analyse wurden eingesetzt: Geneclamp Verstärker (Axon Instruments, Foster City, USA) und MacLab D/A-Umwandler und Software (ADInstruments, Castle Hill, Australia). Die erfindungsgemäßen Substanzen wurden getestet, indem sie in unterschiedlichen Konzentrationen der Badlösung zugefügt wurden. Die Effekte der Substanzen wurden als prozentuale Inhibition des Kv1.5-Kontrollstromes berechnet, der erhalten wurde, wenn der Lösung keine Substanz zugesetzt wurde. Die Daten wurden anschließend mit der Hill-Gleichung extrapoliert, um die Hemmkonzentrationen IC50 für die jeweiligen Substanzen zu bestimmen.

T1 sequence (P22460 whole entry): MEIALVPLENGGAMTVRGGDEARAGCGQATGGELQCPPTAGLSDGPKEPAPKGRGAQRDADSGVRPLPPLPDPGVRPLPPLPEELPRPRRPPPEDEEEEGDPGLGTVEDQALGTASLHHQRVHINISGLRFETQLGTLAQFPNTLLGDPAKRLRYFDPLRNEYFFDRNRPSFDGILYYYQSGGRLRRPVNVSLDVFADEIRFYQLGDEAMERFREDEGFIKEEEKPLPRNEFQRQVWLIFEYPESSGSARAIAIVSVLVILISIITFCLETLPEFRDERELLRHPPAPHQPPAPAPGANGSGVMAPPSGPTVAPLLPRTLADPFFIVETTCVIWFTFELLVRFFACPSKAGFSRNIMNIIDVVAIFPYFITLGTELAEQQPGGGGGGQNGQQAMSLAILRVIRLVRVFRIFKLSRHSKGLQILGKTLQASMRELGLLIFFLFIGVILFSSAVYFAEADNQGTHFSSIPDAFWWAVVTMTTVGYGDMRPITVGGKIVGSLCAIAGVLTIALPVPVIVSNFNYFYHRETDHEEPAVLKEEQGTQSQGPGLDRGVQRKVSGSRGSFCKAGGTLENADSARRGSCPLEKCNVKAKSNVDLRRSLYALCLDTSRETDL

- IC50: 10.3 µM
SMILES: NC(=O)[C@H](Cc1ccccc1)NC(=O)c1ccccc1-c1ccccc1CNS(=O)(=O)c1cccc2cccnc12 [Beispiel 12 l]
